{"source": "patent US12569468B2", "about": "“Use of palovarotene in treatment against HBV virus” (YANG SHENG TANG COMPANY, LTD., priority 2020, dated 2026)", "type_in_all_cases": "cell-based, hepatitis B virus", "key": {"[1]": {"test_system": "HBV", "experiment": "HBcAg immunofluorescence detection in infected HepG2-hNTCP 2B1", "conditions": "HepG2-hNTCP 2B1 cells after infection; 5 μM, day 6 to day 12", "procedure": "Southern blot experiment was carried out on a 10 cm^2 culture plate. About 5×10^6 HepG2-hNTCP 2B1 cells were plated in each 10 cm^2 culture plate, and medium B was added. After the cells adhered, medium A was used for replacement to perform the induction with Doxycycline during the whole experiment. HBV infection was performed 4 days after the induction with Doxycycline, and the amount of HBV for infection was 1000 MOI. Before infection, HBV was diluted in medium C to obtain HBV solution, and the infection volume was 5 mL. During infection, the cell supernatant was first removed by suction, the HBV solution was added to the cells, the cells were incubated for 24 hours, then the supernatant was collected as the sample of Day 0. Then the cells were washed three times with PBS, and fresh medium A was used for replacement. After that, the supernatant was collected every two days for detection, fresh medium A was used for replacement. […]\nThe HBcAg immunofluorescence staining involved in this experiment was performed directly on adherent cells. […] Photographing: Photographing was performed with a high-content confocal microscope (PerkinElmer, Operetta CLS), and the mean fluorescence intensity of green fluorescence was analyzed."}, "[2]": {"test_system": "HBV cccDNA", "experiment": "Southern blot detection of HBV cccDNA in HepAD38", "conditions": "5 μM, 8 days, inhibitory effect inferior to that of control group (ETV 5 μM)", "procedure": "The Southern blot experiment was performed on 6 cm^2 culture plates. About 4.2×10^6 HepAD38 cells were plated in each 6 cm^2 culture plate, and medium G containing tetracycline hydrochloride (Tetracycline) was added. During the experiment, the medium G containing tetracycline hydrochloride was removed, and the drug-containing medium F was added at the same time for drug treatment, in which the treatment concentration of test drug Palovarotene was 5 μM, and the control group used Entecavir (ETV) at a concentration of 5 μM for treatment, and the treatment time was 8 days.\nThe specific Southern blot detection method was carried out with reference to Example 3."}, "[3]": {"test_system": "HBV", "experiment": "Inhibitory effect on HBV infection in infection model HepaRG M14A (drug before infection)", "conditions": "1, 5, 25 μM, treatment before infection", "procedure": "HepaRG was a hepatic progenitor cell line with differentiation potential which was isolated from the tumor tissue of a hepatitis C patient. After two weeks of cell plating, the cellular differentiation was induced with 2% DMSO (2 mL of DMSO was added to per 100 mL of cell culture medium) for two weeks. Finally, about 50% of the cells differentiated into hepatocyte-like cells, and the other 50% of the cells differentiated into cholangiocyte-like cells. Among them, hepatocyte-like cells supported HBV infection with an infection efficiency of about 20%. Through genetic modification of HepaRG, the HNF4A and FoxM1 genes were integrated into HepaRG cells, and a HepaRG M14A cell line that could complete differentiation and support HBV infection independent of DMSO was obtained by screening. (For the construction method of this cell model, please refer to: Zhao Jinghua. Development, Optimization and Preliminary Application of in vitro models supporting HBV Infection [D]. Xiamen University, 2016.)\nThis experiment was carried out in a 24-well cell culture plate. […] About 1.5×10^5 HepaRG M14A cells were plated in each well, and 500 μL of medium D was added to each well. After cell plating, medium D was replaced every 2 days. After 13 days of cell plating, medium D was replaced with drug-containing medium D for drug treatment. After 24 hours of drug treatment, the cells were infected with HBV, and the amount of HBV for infection in each well was 1000 MOI. Before infection, an HBV solution was obtained by diluting HBV in medium E, and the infection volume was 250 μL per well. During infection, the cell supernatant was first removed by suction, the HBV solution was added to the cells, then the cells were incubated for 24 hours, and then the supernatant was collected as the sample of Day 0. Then, the cells were washed three times with PBS warmed in bath at 37° C., and fresh drug-containing medium D (500 μL per well) was used for replacement, then the supernatant was collected every 2 days for detection, and fresh drug-containing medium D was used for replacement, until the 8th day, all the supernatant and cells were collected for related detection. The detection items include HBsAg, HBeAg, HBV DNA, HBV cccDNA, and for the detection method, please refer to Example 1."}}}
{"smiles": "CC1(C)CCC(C)(C)c2cc(Cn3cccn3)c(/C=C/c3ccc(C(=O)O)cc3)cc21", "note": "[Palovarotene]", "values": [{"measurement": "positive rate of HBcAg (immunofluorescence)", "setting": "[1]", "result": "significantly reduce the positive rate"}, {"measurement": "level of HBV cccDNA (Southern blot)", "setting": "[2]", "result": "significantly inhibit"}, {"measurement": "level of intracellular HBV DNA", "setting": "[3]; to day 8, p<0.0001", "result": "significantly reduce"}, {"measurement": "level of intracellular cccDNA", "setting": "[3]; to day 8, p<0.0001", "result": "significantly reduce"}, {"measurement": "level of HBeAg in cell supernatant", "setting": "[3]; to day 8, p<0.05", "result": "significantly reduce"}, {"measurement": "level of HBsAg in cell supernatant", "setting": "[3]; to day 8, p<0.05", "result": "significantly reduce"}]}
